# Data taken from patent US20240384268A1, “Oligonucleotides” (Hudson Institute of Medical Research, priority 2021, published 2024).
# l = locked nucleic acid (LNA); {Cy3} = Cy3 dye moiety; d = 2'-deoxy (DNA); m = 2'-O-methyl
# Assays:
# cGAS [1] = biological target: cGAS (Mus musculus, UniProt Q8C6L5); test: ISD-driven IP-10 production in immortalised mouse BMDMs; format: cell-based; parameters: endogenous in cells; host or cells: immortalised wild-type mouse bone marrow macrophages (iBMDMs); conditions: iBMDMs, 500 nM ASO
# cGAS [2] = biological target: T1, cGAS (Homo sapiens, UniProt Q8N884); test: ISD70-driven IP-10 (and IFN-β) production in THP-1 cells, ELISA; format: cell-based; parameters: endogenous in cells; host or cells: THP-1 (undifferentiated); conditions: THP-1
# STING = biological target: T2, STING (Homo sapiens, UniProt Q86WV6); test: STING agonist (GSK, DMXAA)-driven IP-10 in MG-63 cells and immortalised mouse BMDMs; format: cell-based; conditions: C2-Mut1 500 nM 6 h (GSK 100 nM, DMXAA 50 μg/ml); MOE/LNA ASOs 1 mM as printed (GSK, MG-63)
# T2 construct: host or cells: MG-63 (human osteosarcoma)
# cGAS [3] = biological target: T1, cGAS; test: ISD70-driven IP-10 production in MG-63 cells; format: cell-based; parameters: endogenous in cells
# TLR3 = biological target: T3, TLR3 (Homo sapiens, UniProt O15455); test: pIC-driven IP-10 in MG-63 cells; format: cell-based; parameters: host or cells: MG-63 (human osteosarcoma); conditions: 1 mM ASO as printed, single preliminary experiment
# T3 sequence (O15455 24-904): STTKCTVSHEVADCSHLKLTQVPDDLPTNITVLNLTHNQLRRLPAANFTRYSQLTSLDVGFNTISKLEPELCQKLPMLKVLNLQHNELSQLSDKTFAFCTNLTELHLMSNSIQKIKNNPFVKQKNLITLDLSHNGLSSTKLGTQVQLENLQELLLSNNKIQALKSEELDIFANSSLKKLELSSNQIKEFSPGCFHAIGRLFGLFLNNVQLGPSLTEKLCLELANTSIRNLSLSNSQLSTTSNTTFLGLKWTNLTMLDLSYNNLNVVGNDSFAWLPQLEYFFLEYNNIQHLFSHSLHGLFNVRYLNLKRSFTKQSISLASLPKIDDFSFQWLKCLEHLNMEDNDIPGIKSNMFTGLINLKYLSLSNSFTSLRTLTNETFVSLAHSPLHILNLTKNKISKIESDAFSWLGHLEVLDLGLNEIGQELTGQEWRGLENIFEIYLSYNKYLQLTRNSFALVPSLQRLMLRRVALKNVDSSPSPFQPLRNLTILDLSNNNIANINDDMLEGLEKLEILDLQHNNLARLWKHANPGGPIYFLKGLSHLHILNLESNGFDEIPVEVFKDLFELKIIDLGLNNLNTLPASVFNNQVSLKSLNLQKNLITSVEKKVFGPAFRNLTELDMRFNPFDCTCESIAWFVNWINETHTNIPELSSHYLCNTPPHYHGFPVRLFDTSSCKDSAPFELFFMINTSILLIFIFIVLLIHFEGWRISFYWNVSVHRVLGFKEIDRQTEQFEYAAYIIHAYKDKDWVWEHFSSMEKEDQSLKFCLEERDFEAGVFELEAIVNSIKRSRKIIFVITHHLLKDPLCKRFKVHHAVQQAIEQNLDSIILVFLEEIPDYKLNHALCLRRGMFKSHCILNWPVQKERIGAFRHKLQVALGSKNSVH
# Method: FIG. 25: MG-63 were pre-treated for […] with […] indicated concentrations of ASOs (except for B3 and HPRT847Mut, used at 500 nM), prior to overnight transfection with ISD, stimulation with […] pIC or 100 nM GSK (Valentin et al., 2021). IP10 levels were measured and normalised to GSK only condition, after background correction. Data shown are from a single experiment in biological triplicate (+/−SEM).
# mouse cGAS = biological target: T4, mouse cGAS (Mus musculus, UniProt Q8C6L5); test: ISD45-driven ISRE-luciferase in mouse LL171 cells; format: cell-based; conditions: 2′OMe or PS oligos 50-600 nM, ISD45 2.5 μg/ml overnight
# T4 construct: endogenous in cells; host or cells: LL171 (mouse L929 cells with ISRE-Luciferase)
# Method: In such examples, inhibition of cGAS activity can be identified by observation of an overall decreased cGAS response of the cell population, or a lower proportion of cells having cGAS-positive activity as compared to positive control condition in which cells are treated with cGAS agonist in the absence of the oligonucleotide (or in the presence of an appropriate control inhibitory agent). In one example, THP-1 or HT-29 cells are transfected with ISD70 and incubated with an oligonucleotide. cGAS activity can then be determined by cytokine (e.g., IP-10 and/or IFNβ) expression (e.g., gene and/or protein expression) and/or secretion levels, such as by ELISA. A similar assay can be performed with LL171 cells transfected with ISD45. […] By way of example, cGAS enzymatic activity may be assessed in vitro using recombinant cGAS and then measuring activity thereof by way of a cGAMP ELISA.
# For cGAS stimulations, cells were treated for indicated duration with ASOs, prior to transfection with ISD70 (human cells) or ISD45 (mouse cells) (the ASOs were not washed off prior to ISD transfection unless otherwise indicated). The cGAS ligands ISD45 (Stetson and Medzhitov, 2006) and ISD70 (also known as VACV-70 (Unterholzner et al., 2010)) (Table 1) were resuspended as follows: 5 1d of sense and 5 μl of antisense strands at 10 μg/μl were added to 90 μl PBS under sterile conditions, heated at 75° C. for 30 min, prior to letting cool down at room temperature and aliquoting (stock at 1 μg/1 l). The ISDs were transfected at a concentration of […] at a ratio of 1 μg:1 μl with Lipofectamine 2000 in Opti-MEM (Thermo Fisher Scientific). HEK-TLR3, HEK-TLR7 and […] were treated with indicated concentration of ASOs for 20-50 min, prior to stimulation with poly(I:C) (Invivogen), R848 (Invivogen), Motolimod (MedChemExpress) and the Class B CpG oligonucleotides ODN 2006 (synthesised by IDT and resuspended in RNase-free TE buffer [Table 1]), respectively. The TLR2/1 agonist PAM3CSK4 (Invivogen), the TLR4 agonist lipopolysaccharide (Invivogen), the Class B CpG oligonucleotides ODN 1826 (synthesised by IDT and resuspended in RNase-free TE buffer), the mouse Sting agonist DMXAA (Cayman) and the human STING agonist (compound #3 from (Raanjulu et al., 2018), referred to as GSK herein—kind gift from Cancer Therapeutics CRC, Australia) were used at indicated concentrations. Aspirin (Sigma—A2093) was resuspended in pure medium to 10 mM, filter sterilised and added to the cells at 2 mM final. All ASOs were synthesised by Integrated DNA Technologies (IDT), and resuspended in RNase-free TE buffer, pH 8.0 (Thermo Fisher Scientific). Cell viability was assessed by adding 1× fresh resazurin solution to the wells (10λ solution made up with 7 mg resazurin [Sigma—R7017] dissolved in 3.5 ml PBS, sterile filtered at […]) for 4 h, prior to reading at with a Fluostar OPTIMA (BMG LABTECH) plate-reader (fluorescence: Excitation 535 nm, Emission 590); wells with medium only and 1× resazurin were used as blanks.
# Following transfection, the cells were collected from the 6-wells and aliquoted into 96-wells, just before ASO and overnight TLR stimulation (as above described).
# cGAS [4] = biological target: T1, cGAS; test: IFN-driven gene expression in BJ hTERT SV40T fibroblasts (constitutive cGAS activation), RT-qPCR; conditions: ASO transfected 20-100 nM overnight
# HPRT = HPRT mRNA levels in SV40T hTERT fibroblasts, RT-qPCR; format: cell-based, human; conditions: 100 nM ASO transfected overnight
# HT-29 cells = test: Uptake of Cy3-labelled ASO in HT-29 cells, fluorescent microscopy; format: cell-based, human; conditions: 500 nM ASO2-Cy3, no transfection
# Method: FIG. 7. HT-29 were incubated with 500 nM ASO2-Cy3, prior to ISD70+lipofectamine transfection or not, for 4 h. The cells were subsequently washed with PBS prior to imaging by inverted fluorescent microscopy. The images shown are representative of two independent experiments.
# T1 sequence (Q8N884 whole entry): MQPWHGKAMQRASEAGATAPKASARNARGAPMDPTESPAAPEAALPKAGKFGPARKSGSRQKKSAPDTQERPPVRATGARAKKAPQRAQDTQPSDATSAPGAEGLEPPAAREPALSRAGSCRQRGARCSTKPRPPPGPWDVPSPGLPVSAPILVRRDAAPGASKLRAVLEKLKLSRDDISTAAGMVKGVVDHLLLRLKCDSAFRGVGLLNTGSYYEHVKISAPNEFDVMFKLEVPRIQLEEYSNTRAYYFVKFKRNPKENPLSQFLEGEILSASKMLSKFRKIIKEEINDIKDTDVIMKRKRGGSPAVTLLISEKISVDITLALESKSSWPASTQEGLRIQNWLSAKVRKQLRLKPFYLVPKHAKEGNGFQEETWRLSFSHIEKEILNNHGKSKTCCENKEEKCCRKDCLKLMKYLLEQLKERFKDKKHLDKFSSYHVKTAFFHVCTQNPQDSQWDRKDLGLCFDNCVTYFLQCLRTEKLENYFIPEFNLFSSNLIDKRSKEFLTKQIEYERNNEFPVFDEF
# Chain of cGAS (Mus musculus, UniProt Q8C6L5) (Q8C6L5 whole entry): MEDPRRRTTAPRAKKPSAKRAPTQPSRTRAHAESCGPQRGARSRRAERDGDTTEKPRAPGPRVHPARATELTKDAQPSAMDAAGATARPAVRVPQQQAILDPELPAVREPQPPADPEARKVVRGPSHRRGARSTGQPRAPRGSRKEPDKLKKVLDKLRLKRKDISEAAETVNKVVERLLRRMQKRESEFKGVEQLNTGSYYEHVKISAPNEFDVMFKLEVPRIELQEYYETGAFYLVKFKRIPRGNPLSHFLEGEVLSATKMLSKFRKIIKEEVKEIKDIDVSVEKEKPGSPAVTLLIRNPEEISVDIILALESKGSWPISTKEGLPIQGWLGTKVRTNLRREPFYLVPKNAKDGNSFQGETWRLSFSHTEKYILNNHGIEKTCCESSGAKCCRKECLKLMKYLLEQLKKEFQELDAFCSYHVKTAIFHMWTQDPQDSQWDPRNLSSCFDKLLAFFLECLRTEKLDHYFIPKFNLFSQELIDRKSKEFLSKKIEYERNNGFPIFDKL
# T2 sequence (Q86WV6 whole entry): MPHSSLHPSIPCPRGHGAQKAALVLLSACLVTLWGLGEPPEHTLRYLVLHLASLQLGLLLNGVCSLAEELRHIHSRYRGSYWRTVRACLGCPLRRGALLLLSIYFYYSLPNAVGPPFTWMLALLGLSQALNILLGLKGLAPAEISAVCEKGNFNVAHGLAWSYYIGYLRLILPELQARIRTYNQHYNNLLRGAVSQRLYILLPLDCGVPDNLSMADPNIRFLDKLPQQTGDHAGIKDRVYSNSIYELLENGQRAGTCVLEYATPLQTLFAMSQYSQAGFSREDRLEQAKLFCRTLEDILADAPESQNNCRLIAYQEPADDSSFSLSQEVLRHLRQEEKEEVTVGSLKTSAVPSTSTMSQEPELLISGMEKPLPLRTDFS
# T4 sequence (Q8C6L5 whole entry): as the sequence (Q8C6L5 whole entry) above
substance,measurement,setting,value
"+C*+G*+C*T*T*T*T*C*T*C*T*C*C*+G*+G*+T (CGCTTTTCTCTCCGGT; sugars from the 5' end l3 d10 l3, all phosphorothioate, methylation of C not given here) [A1-Mut]",ISD-induced IP-10 in immortalised mouse BMDMs (in words),cGAS [1]; ISD overnight,did not significantly potentiate IP-10 production
same,"IP-10 induced by the ASO transfected alone, no ISD (in words)",cGAS [1]; lipofectamine only (Mock),induced low level IP-10
same,IC50,"cGAS [2]; ~30 min pre-treatment, ISD70 overnight (FIG. 27), read-out: IC50 (IP-10 after ISD70 transfection), MOE and LNA ASOs",75 nM
same,IP-10 production driven by STING synthetic agonists (in words),STING,not that driven by direct stimulation of STING
same,"IP-10 driven by ISD in MG-63, higher dose (in words)","cGAS [3]; 1 mM ASO as printed, single preliminary experiment (FIG. 25)",only reduced IP-10 driven by ISD
same,"IP-10 after ISD in MG-63, MOE and LNA ASOs (in words)","cGAS [3]; indicated concentrations up to 500 nM, ~30 min, ISD overnight (FIG. 24)",significantly reduced IP-10 levels
same,IP-10 driven by TLR3 engagement with polyI:C in MG-63 (in words),TLR3,only reduced IP-10 driven by ISD
mG*mG*mU* mA*mU*mA* mG*mG*A* C*T*C* C*A*G* A*T*G* mU*mU*mU* mC*mC [HPRT-2OMe-847-Mut1],inhibition of ISD70-driven IP-10 production (in words),"cGAS [2]; 2′OMe or PS oligos, 100-250 nM, pre-treatment as in figure legends, ISD70 2.5 μg/ml",much better inhibitor of cGAS
same,inhibition of ISD45-driven ISRE-luciferase (in words),mouse cGAS,better inhibitor against mouse cGAS activation
same,"inhibition of constitutively expressed ISGs (IFIT1, IFIT2, IFI44; in words)",cGAS [4],as potent as C2-Mutl
same,"inhibition of ISD sensing in MG-63, 2′OMe ASOs (in words)","cGAS [3]; C2-Mut1 500 nM 6 h, or ASO847 series ~30 min, ISD70 overnight",much better inhibitor of cGAS
same,HPRT mRNA levels (in words),HPRT,still able to reduce HPRT levels
"mU*mC*mC*mG*mG*C*C*T*C*G*G*A*A*G*C*mU*mC*mU*mC*mU/3Cy3Sp/ (DNA UCCGGCCTCGGAAGCUCUCU; sugars from the 5' end m5 d10 m5, all phosphorothioate, 3' {Cy3}, methylation of C not given here) [ASO2-Cy3]",uptake by cells (in words),HT-29 cells,spontaneous uptake
